From ChEMBL document CHEMBL3868582, “Discovery, pharmacology, and clinical profile of omadacycline, a novel aminomethylcycline antibiotic” (Bioorg Med Chem, 2016)
Converted amounts (≈) assume the structure as drawn.

Assays:
[1] = Systemic clearance in human at 1.5 mg/kg, iv q24h or 100 mg, po q12h; assay type: ADME, organism-based; settings: in vivo
[2] = AUC(0 to 24 hrs) in human at 100 mg, po q12h; assay type: ADME, organism-based; design: time < 24 hr, dose 100 mg, route oral; settings: in vivo
[3] = Terminal half life in human at 1.5 mg/kg, iv q24h or 100 mg, po q12h; assay type: ADME, organism-based; settings: in vivo, read-out: beta t1/2
[4] = Cmax in human at 100 mg, po q12h; assay type: ADME, organism-based; design: dose 100 mg, route oral; settings: in vivo
[5] = AUC(0 to 24 hrs) in human at 1.5 mg/kg, iv q24h; assay type: ADME, organism-based; design: dose 1.5 mg/kg, time < 24 hr, route intravenous; settings: in vivo
[6] = Oral bioavailability in human at 100 mg administered q12h; assay type: ADME, organism-based; settings: in vivo
[7] = Protein binding in human plasma; assay type: ADME, cell-free; settings: read-out: PPB
[8] = Cmax in human at 1.5 mg/kg, iv q24h; assay type: ADME, organism-based; design: dose 1.5 mg/kg, route intravenous; settings: in vivo
[9] = Oral bioavailability in human 300 mg; assay type: ADME, organism-based; settings: in vivo
[10] = Half life in human at 300 mg, po; settings: in vivo
[11] = Cmax in human at 300 mg, po; assay type: ADME; design: dose 300 mg, route oral; settings: in vivo
[12] = Tmax in human at 300 mg, po; assay type: ADME; settings: in vivo
Streptococcus pneumoniae [13] = assay: Antibacterial activity against Streptococcus pneumoniae PBS1399; assay type: functional
Escherichia coli [14] = assay: Antibacterial activity against Escherichia coli; assay type: functional
[15] = Induction of CYP2B6 mRNA level in human primary hepatocytes at 1 to 100 uM after 24 to 48 hrs relative to control; assay type: ADME, cell-based, Hepatocyte
Klebsiella aerogenes = assay: Antibacterial activity against Enterobacter aerogenes; assay type: functional
Streptococcus pneumoniae [16] = assay: Antibacterial activity against Streptococcus pneumoniae PBS1399 infected in mouse assessed as protection against bacterial infection by measuring mouse survival administered intravenously as single dose after 2 hrs of infection measured on day 7; assay type: functional; settings: PBS1399, iv, read-out: PD50
Serratia marcescens = assay: Antibacterial activity against Serratia marcescens; assay type: functional
Bacteroides fragilis = assay: Antibacterial activity against Bacteroides fragilis; assay type: functional
[17] = Induction of CYP2D6 mRNA level in human primary hepatocytes at 1 to 100 uM after 24 to 48 hrs relative to control; assay type: ADME, cell-based, Hepatocyte
Pseudomonas aeruginosa = assay: Antibacterial activity against Pseudomonas aeruginosa; assay type: functional
[18] = Induction of CYP1A2 mRNA level in human primary hepatocytes at 1 to 100 uM after 24 to 48 hrs relative to control; assay type: ADME, cell-based, Hepatocyte
Klebsiella pneumoniae = assay: Antibacterial activity against Klebsiella pneumoniae by microdilution broth assay; assay type: functional
[19] = Induction of CYP3A4/5 mRNA level in human primary hepatocytes at 1 to 100 uM after 24 to 48 hrs relative to control; assay type: ADME, cell-based, Hepatocyte
Staphylococcus aureus [20] = assay: Antibacterial activity against Staphylococcus aureus USA400 in mouse thigh wound infection model assessed as reduction in bacterial load administered intravenously as single dose after 2 hrs of infection measured after 24 hrs post treatment; assay type: functional; settings: USA400, iv
[21] = Induction of CYP2E1 mRNA level in human primary hepatocytes at 1 to 100 uM after 24 to 48 hrs relative to control; assay type: ADME, cell-based, Hepatocyte
Staphylococcus aureus [22] = assay: Antibacterial activity against Staphylococcus aureus USA300 in mouse thigh wound infection model assessed as reduction in bacterial load administered intravenously as single dose after 2 hrs of infection measured after 24 hrs post treatment; assay type: functional; settings: USA300, iv
[23] = Induction of CYP2C19 mRNA level in human primary hepatocytes at 1 to 100 uM after 24 to 48 hrs relative to control; assay type: ADME, cell-based, Hepatocyte
[24] = Induction of CYP2J2 mRNA level in human primary hepatocytes at 1 to 100 uM after 24 to 48 hrs relative to control; assay type: ADME, cell-based, Hepatocyte
Staphylococcus aureus [25] = assay: Antibacterial activity against Staphylococcus aureus USA400; assay type: functional
[26] = Metabolic stability in human microsomes at 4.8 uM after 30 mins; assay type: ADME, Microsome; settings: read-out: Stability
Providencia sp. = assay: Antibacterial activity against Providencia sp.; assay type: functional
Clostridioides difficile [27] = assay: Antibacterial activity against Clostridium difficile by broth microdilution assay; assay type: functional
Staphylococcus aureus [28] = assay: Antibacterial activity against Staphylococcus aureus USA300; assay type: functional
Clostridium perfringens = assay: Antibacterial activity against Clostridium perfringens; assay type: functional
[29] = Metabolic stability in human hepatocytes at 48 uM up to 24 hrs; assay type: ADME, cell-based, Hepatocyte; settings: read-out: Stability
Enterobacter cloacae = assay: Antibacterial activity against Enterobacter cloacae; assay type: functional
[30] = Induction of CYP2A6 mRNA level in human primary hepatocytes at 1 to 100 uM after 24 to 48 hrs relative to control; assay type: ADME, cell-based, Hepatocyte
[31] = Induction of CYP2C9 mRNA level in human primary hepatocytes at 1 to 100 uM after 24 to 48 hrs relative to control; assay type: ADME, cell-based, Hepatocyte
[32] = tested on: Stenotrophomonas maltophilia; assay: Antibacterial activity against Stenotrophomonas maltophilia; assay type: functional
[33] = Induction of CYP1A1 mRNA level in human primary hepatocytes at 1 to 100 uM after 24 to 48 hrs relative to control; assay type: ADME, cell-based, Hepatocyte
Escherichia coli [34] = assay: Antibacterial activity against Escherichia coli by microdilution broth assay; assay type: functional
Haemophilus influenzae [35] = assay: Antibacterial activity against Haemophilus influenzae by microdilution broth assay; assay type: functional
Proteus sp. = assay: Antibacterial activity against Proteus sp.; assay type: functional; settings: Proteus sp. (in: enterobacteria)
Haemophilus influenzae [36] = assay: Antibacterial activity against Haemophilus influenzae PBS981 infected in CD-1 mouse assessed as reduction in bacterial load in lungs administered intravenously as single dose after 2 hrs of infection measured after 24 hrs post treatment; assay type: functional; settings: PBS981, iv
Haemophilus influenzae [37] = assay: Antibacterial activity against Haemophilus influenzae; assay type: functional
[38] = target: Voltage-gated inwardly rectifying potassium channel KCNH2 (Homo sapiens, UniProt Q12809); assay: Inhibition of human ERG
Clostridioides difficile [39] = assay: Antibacterial activity against Clostridium difficile infected in hamster model assessed as median survival time; assay type: functional
Clostridioides difficile [40] = assay: Antibacterial activity against Clostridium difficile by agar microdilution assay; assay type: functional
Salmonella sp. = assay: Antibacterial activity against Salmonella sp.; assay type: functional
Haemophilus influenzae [41] = assay: Antibacterial activity against Haemophilus influenzae PBS981; assay type: functional
[42] = Induction of CYP2C8 mRNA level in human primary hepatocytes at 1 to 100 uM after 24 to 48 hrs relative to control; assay type: ADME, cell-based, Hepatocyte
Moraxella catarrhalis = assay: Antibacterial activity against Moraxella catarrhalis; assay type: functional
Shigella sp. = assay: Antibacterial activity against Shigella sp.; assay type: functional
Haemophilus influenzae [43] = assay: […] activity against Haemophilus influenzae assessed as reduction in bacterial load at MIC by time-kill analysis; assay type: functional
[44] = Induction of CYP1B1 mRNA level in human primary hepatocytes at 1 to 100 uM after 24 to 48 hrs relative to control; assay type: ADME, cell-based, Hepatocyte

Voltage-gated inwardly rectifying potassium channel KCNH2, sequence (Q12809 whole entry): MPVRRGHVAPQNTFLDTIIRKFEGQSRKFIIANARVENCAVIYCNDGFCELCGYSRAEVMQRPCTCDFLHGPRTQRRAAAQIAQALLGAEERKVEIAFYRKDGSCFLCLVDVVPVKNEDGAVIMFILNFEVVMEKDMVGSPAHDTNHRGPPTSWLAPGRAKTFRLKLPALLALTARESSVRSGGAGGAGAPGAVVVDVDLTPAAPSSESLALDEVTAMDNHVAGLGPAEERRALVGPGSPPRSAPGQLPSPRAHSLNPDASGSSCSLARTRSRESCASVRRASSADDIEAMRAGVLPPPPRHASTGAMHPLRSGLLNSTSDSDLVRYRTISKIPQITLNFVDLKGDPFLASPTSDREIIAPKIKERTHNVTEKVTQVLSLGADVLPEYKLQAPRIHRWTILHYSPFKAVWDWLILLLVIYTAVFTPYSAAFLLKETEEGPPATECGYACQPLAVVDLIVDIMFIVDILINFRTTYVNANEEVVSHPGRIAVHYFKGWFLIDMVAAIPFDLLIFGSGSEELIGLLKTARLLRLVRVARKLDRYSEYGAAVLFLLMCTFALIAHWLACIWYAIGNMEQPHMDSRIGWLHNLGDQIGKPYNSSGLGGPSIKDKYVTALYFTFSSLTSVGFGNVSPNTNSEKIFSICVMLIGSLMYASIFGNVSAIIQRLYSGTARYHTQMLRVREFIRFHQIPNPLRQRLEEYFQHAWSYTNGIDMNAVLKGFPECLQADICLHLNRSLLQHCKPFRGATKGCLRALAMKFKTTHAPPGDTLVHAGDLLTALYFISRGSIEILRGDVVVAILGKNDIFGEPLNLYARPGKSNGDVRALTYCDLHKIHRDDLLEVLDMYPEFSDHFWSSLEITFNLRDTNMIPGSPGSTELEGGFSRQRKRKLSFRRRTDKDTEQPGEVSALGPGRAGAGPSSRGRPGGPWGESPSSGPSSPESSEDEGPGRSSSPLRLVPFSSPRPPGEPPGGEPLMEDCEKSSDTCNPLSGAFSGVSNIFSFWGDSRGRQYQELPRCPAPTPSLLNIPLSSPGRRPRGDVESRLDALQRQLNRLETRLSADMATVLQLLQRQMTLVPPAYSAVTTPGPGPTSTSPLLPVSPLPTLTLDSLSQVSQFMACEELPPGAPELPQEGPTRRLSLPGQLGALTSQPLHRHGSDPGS

CN(C)[C@@H]1C(O)=C(C(N)=O)C(=O)[C@@]2(O)C(O)=C3C(=O)c4c(O)c(NC(=O)CN5CCCC5)cc(F)c4C[C@H]3C[C@@H]12 [ERAVACYCLINE]
clearance [1]: 297 mL/min
AUC at 24 h [2]: 3100 ng·h/mL
half-life [3]: 10 to 14 h
Cmax [4]: 160 ng/mL
AUC at 24 h [5]: 7900 ng·h/mL
bioavailability [6]: 28%
fraction unbound [7]: 0.13 to 0.21
Cmax [8]: 1900 ng/mL

CN(C)c1cc(CNCC(C)(C)C)c(O)c2c1C[C@H]1C[C@H]3[C@H](N(C)C)C(O)=C(C(N)=O)C(=O)[C@@]3(O)C(O)=C1C2=O.Cc1ccc(S(=O)(=O)O)cc1 [OMADACYCLINE TOSYLATE]
bioavailability [9]: 34.5%
half-life [10]: 17 h
Cmax [11]: 540 ng/mL
Tmax [12]: 3 h

CN(C)c1cc(CNCC(C)(C)C)c(O)c2c1C[C@H]1C[C@H]3[C@H](N(C)C)C(O)=C(C(N)=O)C(=O)[C@@]3(O)C(O)=C1C2=O [OMADACYCLINE]
MIC (Streptococcus pneumoniae [13]): 0.125 µg/mL (≈ 0.225 µM)
MIC90 (Escherichia coli [14]): < 4 µg/mL
Activity [15]: < 40%
MIC90 (Klebsiella aerogenes): < 4 µg/mL
ED50 (Streptococcus pneumoniae [16]): 1.5 mg/kg
MIC90 (Serratia marcescens): < 4 µg/mL
MIC90 (Bacteroides fragilis): 0.12 to 4 µg/mL (≈ 0.216 to 7.19 µM)
Activity [17]: < 40%
MIC90 (Pseudomonas aeruginosa): > 16 µg/mL
Activity [18]: < 40%
MIC90 (Klebsiella pneumoniae): 2 to 4 µg/mL (≈ 3.59 to 7.19 µM)
Activity [19]: < 40%
ED50 (Staphylococcus aureus [20]): 0.68 mg/kg
Activity [21]: < 40%
ED50 (Staphylococcus aureus [22]): 0.4 mg/kg
Activity [23]: < 40%
Activity [24]: < 40%
MIC (Staphylococcus aureus [25]): 0.5 µg/mL (≈ 0.898 µM)
remaining at 0.5 h, 4.8 µM [26]: > 90%
MIC90 (Providencia sp.): > 16 µg/mL
MIC90 (Clostridioides difficile [27]): 0.06 µg/mL (≈ 0.108 µM)
MIC (Staphylococcus aureus [28]): 0.25 µg/mL (≈ 0.449 µM)
MIC90 (Clostridium perfringens): 0.12 to 4 µg/mL (≈ 0.216 to 7.19 µM)
remaining at 24 h, 48 µM [29]: > 86%
MIC90 (Enterobacter cloacae): < 4 µg/mL
Activity [30]: < 40%
Activity [31]: < 40%
MIC90 [32]: < 4 µg/mL
Activity [33]: < 40%
MIC90 (Escherichia coli [34]): 2 to 4 µg/mL (≈ 3.59 to 7.19 µM)
MIC90 (Haemophilus influenzae [35]): 2 to 4 µg/mL (≈ 3.59 to 7.19 µM)
MIC90 (Proteus sp.): > 16 µg/mL
ED50 (Haemophilus influenzae [36]): 6.47 mg/kg
MIC90 (Haemophilus influenzae [37]): 2 µg/mL (≈ 3.59 µM)
IC25 [38]: 166 µg/mL (≈ 298 µM)
MST (Clostridioides difficile [39]): 12 days
MIC90 (Clostridioides difficile [40]): 0.12 µg/mL (≈ 0.216 µM)
MIC90 (Salmonella sp.): < 4 µg/mL
MIC (Haemophilus influenzae [41]): 1 µg/mL (≈ 1.8 µM)
Activity [42]: < 40%
MIC90 (Moraxella catarrhalis): 0.25 µg/mL (≈ 0.449 µM)
MIC90 (Shigella sp.): < 4 µg/mL
Activity (Haemophilus influenzae [43]): >=3 log10CFU
Activity [44]: < 40%
